Data from ChEMBL document CHEMBL4043072, “Catechin-Bound Ceanothane-Type Triterpenoid Derivatives from the Roots of Zizyphus jujuba” (J Nat Prod, 2017).

Assay: Inhibition of cell proliferation of activated rat HSC-T6 cells incubated for 24 hrs by MTT assay
Assay type: functional, cell-based
Conditions: HSC-T6, 24 h

Work on `C=C(C)[C@@H]1CC[C@]2(C(=O)O)CC[C@]3(C)[C@H](CC[C@@H]4[C@@]5(C)[C@H]6C(=O)c7c(cc(O)c8c7O[C@@H](c7ccc(O)c(O)c7)[C@@H](O)C8)O[C@@H]6C(C)(C)[C@@H]5CC[C@]43C)[C@@H]12` yielded an IC50 of 43.5 µM.
In the case of `O=C(O[C@@H]1Cc2c(O)cc(O)cc2O[C@@H]1c1cc(O)c(O)c(O)c1)c1cc(O)c(O)c(O)c1` [EPIGALOCATECHIN GALLATE], the IC50 is reported as 31.6 µM.
